Legend:
Burdock = assay: Growth promotion effect test IV of water-solubilized coenzyme Q10; format: in vivo; conditions: growth-promoting agent in Example 3 (CoQ10 1 ppm), after 7 days
Method: (§1) A required number of petri dishes were prepared, the Kimtowel was matted on the each petri dish, 100 mL of the growth-promoting agent in Example 3 was poured thereon, and 40 seeds (produced by Noguchi Seed and Seedling Laboratory) of the plants described in Table 4 were placed thereon. These petri dishes were stored at room temperature under the light shielding condition. After 7 days, sprouts were collected, and the total length of the plants described in Table 4 was measured. The growth rate was calculated based on the following formula (A growth rate was calculated by the same way described above): [(A−B)/B]×100, wherein A denotes a measured value of the total length of the plant cultivated in the presence of the growth-promoting agent containing CoQ10, and B denotes the measured value of the total length of the plant as the control.

Komatsuna = assay: as above; format: in vivo; conditions: growth-promoting agent in Example 3 (CoQ10 1 ppm), after 7 days
Method: as §1

Crown daisy = assay: as above; format: in vivo; conditions: growth-promoting agent in Example 3 (CoQ10 1 ppm), after 7 days
Method: as §1

Spinach = assay: as above; format: in vivo; conditions: growth-promoting agent in Example 3 (CoQ10 1 ppm), after 7 days
Method: as §1

radish sprouts = assay: Growth promotion effect test I of water-solubilized coenzyme Q10; format: in vivo; conditions: high concentration of 100 ppm of coenzyme Q10
Method: A Kimtowel was matted on a petri dish, 100 mL of a growth-promoting agent in Example 1 was poured thereon, and 20 seeds of radish sprouts (produced by Noguchi Seed and Seedling Laboratory) were placed thereon. This petri dish was stored at room temperature under a light shielding condition. After 7 days, the sprouts were collected, and a total length and a root length of the radish sprouts were measured. Data as the control was a result obtained by measuring the total length of the plant in the same way as described above, except that city water was used in place of the growth-promoting agent (data as the control described below was a result obtained by the same way described above). Numerical values in the Table represent a mean of measured values unless otherwise explained (Numerical values in the Table described below represent the same described above). A growth rate was calculated based on the following formula (Numerical A growth rate was calculated by the same way described above): [(A−B)/B]×100, wherein A denotes a measured value of the total length of the plant cultivated in the presence of the growth-promoting agent containing coenzyme Q10, and B denotes a measured value of the total length of the plant as the control plant.

Snow peas = assay: Growth promotion effect test V of water-solubilized coenzyme Q10; format: in vivo; conditions: same way as test IV (CoQ10 1 ppm)
Method: (§2) A required number of petri dishes were prepared, the Kimtowel was matted on the each petri dish, 100 mL of the growth-promoting agent in Example 3 was poured thereon, and 40 seeds (produced by Noguchi Seed and Seedling Laboratory) of the plants described in Table 4 were placed thereon. These petri dishes were stored at room temperature under the light shielding condition. After 7 days, sprouts were collected, and the total length of the plants described in Table 4 was measured. The required number of petri dishes was prepared, and the growth-promoting effect on seeds (produced by Noguchi Seed and Seedling Laboratory) of the plants described in Table 5 was examined in the same way as in Growth promotion effect test IV of water-solubilized coenzyme Q10. 30 seeds of wheat were examined. Buckwheat and snow peas were stored at room temperature under the light shielding condition, and collected after 8 days. Spinach was stored at room temperature under the light shielding condition, and collected after 9 days.

Wheat = assay: as above; format: in vivo; conditions: 30 seeds, same way as test IV (CoQ10 1 ppm)
Method: as §2

Buckwheat = assay: as above; format: in vivo; conditions: same way as test IV (CoQ10 1 ppm)
Method: as §2

Green onions = assay: as above; format: in vivo; conditions: same way as test IV (CoQ10 1 ppm)
Method: as §2

Chives = assay: as above; format: in vivo; conditions: same way as test IV (CoQ10 1 ppm)
Method: as §2

[1] = Precipitation of coenzyme Q10 in the growth-promoting agent; format: physicochemical; conditions: growth-promoting agent diluted with city water, up to 100 ppm
Method: First, 1.25 g of water-solubilized coenzyme Q10 (Aqua Q10-P40 containing coenzyme Q10 in an amount of 40% by mass manufactured by Nisshin Pharma Inc.) was diluted using 500 ml of city water to prepare a solution of 1000 ppm of coenzyme Q10. This was diluted with city water to prepare a growth-promoting agent in a solubilized form containing coenzyme Q10 (sometimes described as CoQ10) in the amount of 10 ppm or 100 ppm.

[2] = room temperature, light shielding
[3] = room temperature, light shielding, collected after 8 days

**Q.** Which results are given for COC1=C(OC)C(=O)C(C/C=C(\C)CC/C=C(\C)CC/C=C(\C)CC/C=C(\C)CC/C=C(\C)CC/C=C(\C)CC/C=C(\C)CC/C=C(\C)CC/C=C(\C)CCC=C(C)C)=C(C)C1=O [CoQ10, coenzyme Q10]?
**A.** Growth increase rate (Burdock; versus control): 12.7%; Measured value (total length) (Burdock; [2]): 4.96 cm; Growth increase rate (Komatsuna; versus control): 15.6%; Measured value (total length) (Komatsuna; [2]): 8.87 cm; Growth increase rate (Crown daisy; versus control): 17.9%; Measured value (total length) (Crown daisy; [2]): 5.46 cm; Growth increase rate (Spinach; versus control): 10.5%; Measured value (total length) (Spinach; [2]): 4.22 cm; concentration disorder (radish sprouts): without causing a concentration disorder; Growth increase rate (Snow peas; after 8 days, versus control): 17.1%; Measured value (total length) (Snow peas; [3]): 29.31 cm; Measured value (total length) (Wheat; [2]): 14.16 cm; Growth increase rate (Wheat; versus control): 44.6%; Growth increase rate (Buckwheat; after 8 days, versus control): 12.8%; Measured value (total length) (Buckwheat; [3]): 25.01 cm; Measured value (total length) (Green onions; [2]): 3.02 cm; Growth increase rate (Green onions; versus control): 19.4%; Measured value (total length) (Chives; [2]): 2.90 cm; Growth increase rate (Chives; versus control): 22.4%; precipitation of coenzyme Q10 [1]: not precipitated

Reference: US20100179061A1, “PLANT GROWTH PROMOTER” (Nisshin Pharma Inc., priority 2007, published 2010)
